In brackets after ≈: the same amount, converted by molar mass.
Key:
KB = assay: Cytotoxicity against human KB cells after 72 hrs by MTT assay; format: functional, cell-based
MH60 = assay: Cytotoxicity against mouse MH60 cells after 72 hrs by MTT assay; format: functional, cell-based; settings: MH60, 72 h

Row | Compound | IC50 (KB) | IC50 (MH60)
1 | C[C@]12CC[C@H](OC=O)C[C@H]1CC[C@@H]1[C@@H]2CC[C@]2(C)[C@@H]([C@]34C=CC(=O)O[C@H]3O4)C[C@H]3O[C@]132 | > 25 µg/mL | > 25 µg/mL
2 | C[C@]12CC[C@H](OC=O)C[C@H]1CC[C@@H]1[C@@H]2CC[C@]2(C)[C@@H]([C@@]34C=CC(=O)O[C@@H]3O4)C[C@H]3O[C@]132 | > 25 µg/mL | > 25 µg/mL
3 | C[C@]12CC[C@H](O)C[C@H]1CC[C@@H]1[C@@H]2CC[C@]2(C)[C@@H]([C@@]34C=CC(=O)O[C@@H]3O4)C[C@H]3O[C@]132 | 10.9 µg/mL (≈ 27.2 µM) | 1.82 µg/mL (≈ 4.54 µM)
4 | C[C@]12CCC(=O)C[C@H]1CC[C@@H]1[C@@H]2CC[C@]2(C)[C@@H]([C@@]34C=CC(=O)O[C@@H]3O4)C[C@H]3O[C@]132 | 18.5 µg/mL (≈ 46.4 µM) | 8.54 µg/mL (≈ 21.4 µM)
5 | C[C@]12CC[C@H](O)C[C@H]1CC[C@@H]1[C@@H]2CC[C@]2(C)[C@@H]([C@]34C=CC(=O)O[C@H]3O4)C[C@H]3O[C@]132 | 8.09 µg/mL (≈ 20.2 µM) | 1.8 µg/mL (≈ 4.49 µM)
6 | C[C@]12CC[C@H](O)C[C@H]1CC[C@@H]1[C@@H]2CC[C@]2(C)[C@@H](c3ccc(=O)oc3)C[C@H]3O[C@]132 [BUFOGENIN] | 1.34 µg/mL (≈ 3.48 µM) | 10.5 µg/mL (≈ 27.3 µM)
